Results from patent US7563621B2, “Absorbing organic reagents into diagnostic test devices by formation of amine salt complexes” (Siemens Healhcare Diagnostics Inc, priority 2003, dated 2009).
Values joined by “and” are separate entries in the source; they are usually repeats but may differ in a detail not shown here. Equal entries are not always repeated. Structures can show the parent of a compound that is named as a salt.

Key:
[1] = Butanol/water partitioning of pyrogallol red dye salts (Example 3); format: physicochemical; details: 276 nm; for Absorbance of Dye Salt in Butanol: butanol layer; for Absorbance of Dye Salt in Water: water layer
Protocol: Extractions were then performed in Mixxor extractors.

Lambda Light Chain [2] = experiment: Automated protein assay with pyrogallol red salts, 54 μM (Example 5); details: Lambda Light Chain 25 mg/dL, 10 minutes, averaged data
Protocol: (§1) The dilutor was programmed for reactions of 180 μL reagent+40 μL sample. […] The samples were phosphate buffered saline (blank), human serum albumin (HSA) 25 mg/dL, and other proteins (i.e., human IgG, […], and Lambda Light Chain) at 25 mg/dL. Absorbance rate data were collected on a Biotek, Powerwave X Microplate Absorbance reader using BioTek “KC Jr” software to determine the relative detection of the different proteins (i.e., HSA, human IgG, […], and Lambda Light Chain) using salts of pyrogallol red. Two sets of replicates of the different proteins were run. […] The protein response was determined by subtracting the phosphate buffered saline sample reaction result from the protein reaction result.

Tamm-Horsfall [3] = molecular target: T1, Tamm-Horsfall (Homo sapiens, UniProt P07911); experiment: as above; details: 10 minutes; for 600 nm Absorbance Level, salt with Protein / 900 nm Absorbance Background Level, salt with Protein / Reaction Absorbance at 600 nm − Absorbance at 900 nm (net protein response, protein minus non-protein sample): Tamm-Horsfall 25 mg/dL; for 600 nm Absorbance Level, salt with Protein / 900 nm Absorbance Background Level, salt with Protein / 600 nm Absorbance Level, salt in Phosphate Buffered Saline (No Protein) / 900 nm Absorbance Background Level, salt in Phosphate Buffered Saline (No Protein): 37° C, replicates #1 and #2; for Reaction Absorbance at 600 nm − Absorbance at 900 nm (net protein response, protein minus non-protein sample): averaged data; for 600 nm Absorbance Level, salt in Phosphate Buffered Saline (No Protein) / 900 nm Absorbance Background Level, salt in Phosphate Buffered Saline (No Protein): Tamm-Horsfall
Protocol: as §1

human IgG [4] = experiment: as above; details: IgG 25 mg/dL, 10 minutes, averaged data
Protocol: as §1

[5] = molecular target: T2, human serum albumin (HSA) (Homo sapiens, UniProt P02768); experiment: as above; details: 10 minutes; for 600 nm Absorbance Level, salt with Protein / 900 nm Absorbance Background Level, salt with Protein / Reaction Absorbance at 600 nm − Absorbance at 900 nm (net protein response, protein minus non-protein sample): HSA 25 mg/dL; for 600 nm Absorbance Level, salt with Protein / 900 nm Absorbance Background Level, salt with Protein / 600 nm Absorbance Level, salt in Phosphate Buffered Saline (No Protein) / 900 nm Absorbance Background Level, salt in Phosphate Buffered Saline (No Protein): 37° C, replicates #1 and #2; for Reaction Absorbance at 600 nm − Absorbance at 900 nm (net protein response, protein minus non-protein sample): averaged data; for 600 nm Absorbance Level, salt in Phosphate Buffered Saline (No Protein) / 900 nm Absorbance Background Level, salt in Phosphate Buffered Saline (No Protein): HSA
Protocol: as §1

[6] = molecular target: T2, human serum albumin (HSA); experiment: Automated protein assay with pyrogallol red salts, 74 μM (Example 6); details: HSA 25 mg/dL; 10 minutes, 37° C; 900 nm baseline subtracted; Series #1 and #2
Protocol: The dilutor was programmed for reactions of 180 μL reagent+40 μL sample. […] The samples were phosphate buffered saline (blank), human serum albumin (HSA) 25 mg/dL, and other proteins (i.e., human IgG, […], and Lambda Light Chain) at 25 mg/dL. Absorbance data were collected on a Biotek, Powerwave X Microplate Absorbance reader using BioTek “KC Jr” software to determine the relative detection of the different proteins (i.e., HSA, human IgG, […], and Lambda Light Chain) using salts of pyrogallol red. Two sets of replicates of the different proteins were run. […] The protein response was determined by subtracting the phosphate buffered saline sample reaction result from the protein reaction result.

Lambda Light Chain [7] = experiment: as above; details: Series #1 and #2; for Percent Detection as Percentage of HSA Detection: Lambda Light Chain
Protocol: (§2) The dilutor was programmed for reactions of 180 μL reagent+40 μL sample. […] The samples were phosphate buffered saline (blank), human serum albumin (HSA) 25 mg/dL, and other proteins (i.e., human IgG, […], and Lambda Light Chain) at 25 mg/dL. Absorbance data were collected on a Biotek, Powerwave X Microplate Absorbance reader using BioTek “KC Jr” software to determine the relative detection of the different proteins (i.e., HSA, human IgG, […], and Lambda Light Chain) using salts of pyrogallol red. Two sets of replicates of the different proteins were run. […] The protein response was determined by subtracting the phosphate buffered saline sample reaction result from the protein reaction result. […] The results for protein equivalence of the non-albumin proteins were expressed as a percentage of the protein colorimetric response to HSA as shown in Table 11 below.

Tamm-Horsfall [8] = molecular target: T1, Tamm-Horsfall; experiment: as above; details: Series #1 and #2
Protocol: as §2

human IgG [9] = experiment: as above; details: Series #1 and #2
Protocol: as §2

T2 sequence (P02768 25-609): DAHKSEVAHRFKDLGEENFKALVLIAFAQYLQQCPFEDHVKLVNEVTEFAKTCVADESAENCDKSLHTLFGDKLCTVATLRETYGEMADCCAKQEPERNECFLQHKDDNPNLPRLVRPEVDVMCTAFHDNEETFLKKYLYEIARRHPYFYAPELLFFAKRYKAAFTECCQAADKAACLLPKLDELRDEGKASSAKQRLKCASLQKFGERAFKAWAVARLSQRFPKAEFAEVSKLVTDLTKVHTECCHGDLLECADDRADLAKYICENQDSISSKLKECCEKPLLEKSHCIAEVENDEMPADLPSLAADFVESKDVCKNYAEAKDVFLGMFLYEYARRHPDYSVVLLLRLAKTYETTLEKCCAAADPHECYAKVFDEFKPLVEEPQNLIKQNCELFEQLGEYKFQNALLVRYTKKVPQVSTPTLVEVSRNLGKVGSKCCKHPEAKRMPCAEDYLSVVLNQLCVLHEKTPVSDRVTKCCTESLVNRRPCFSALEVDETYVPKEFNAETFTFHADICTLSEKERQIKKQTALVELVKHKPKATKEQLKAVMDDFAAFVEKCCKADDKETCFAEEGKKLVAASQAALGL

## O=c1ccc2c(-c3ccccc3S(=O)(=O)O)c3ccc(O)c(O)c3oc-2c1O [Sodium Pyrogallol Red Salt, pyrogallol red, reference compound]
[1]; Sodium Hydroxide
  Ratio of Butanol Absorbance to Water Absorbance: 0.10
  Absorbance of Dye Salt in Butanol: 0.034
  Absorbance of Dye Salt in Water: 0.338
Lambda Light Chain [2]; listed as Sodium Salt
  Reaction Absorbance at 600 nm − Absorbance at 900 nm (net protein response, protein minus non-protein sample): 0.006
Tamm-Horsfall [3]
  600 nm Absorbance Level, salt with Protein: 0.203 and 0.204
  900 nm Absorbance Background Level, salt with Protein: 0.036
  600 nm Absorbance Level, salt in Phosphate Buffered Saline (No Protein): 0.196 and 0.198
  900 nm Absorbance Background Level, salt in Phosphate Buffered Saline (No Protein): 0.036 and 0.035
Tamm-Horsfall [3]; listed as Sodium Salt
  Reaction Absorbance at 600 nm − Absorbance at 900 nm (net protein response, protein minus non-protein sample): 0.007
Human IgG [4]; listed as Sodium Salt
  Reaction Absorbance at 600 nm − Absorbance at 900 nm (net protein response, protein minus non-protein sample): 0.008
[5]
  600 nm Absorbance Level, salt with Protein: 0.211
  900 nm Absorbance Background Level, salt with Protein: 0.035
  600 nm Absorbance Level, salt in Phosphate Buffered Saline (No Protein): 0.197 and 0.196
  900 nm Absorbance Background Level, salt in Phosphate Buffered Saline (No Protein): 0.035
[5]; listed as Sodium Salt
  Reaction Absorbance at 600 nm − Absorbance at 900 nm (net protein response, protein minus non-protein sample): 0.015
[6]
  average net absorbance at 600 nm after subtracting PBS sample reaction result: 0.0563 and 0.0536
Lambda Light Chain [7]; Lambda Light Chain 25 mg/dL, 10 minutes, 37° C, 900 nm baseline subtracted
  average net absorbance at 600 nm after subtracting PBS sample reaction result: 0.0041 and 0.0037
Lambda Light Chain [7]
  Percent Detection as Percentage of HSA Detection: 8% and 7%
Lambda Light Chain [7]; listed as sodium
  Percent Detection as Percentage of HSA Detection: 8%
Tamm-Horsfall [8]; Tamm-Horsfall 25 mg/dL, 10 minutes, 37° C, 900 nm baseline subtracted
  average net absorbance at 600 nm after subtracting PBS sample reaction result: 0.0141 and 0.0118
Tamm-Horsfall [8]; Tamm-Horsfall
  Percent Detection as Percentage of HSA Detection: 26% and 21%
Human IgG [9]; IgG 25 mg/dL, 10 minutes, 37° C, 900 nm baseline subtracted
  average net absorbance at 600 nm after subtracting PBS sample reaction result: 0.0311 and 0.0318
Human IgG [9]; IgG
  Percent Detection as Percentage of HSA Detection: 58% and 56%

## O=c1ccc2c(-c3ccccc3S(=O)(=O)O)c3ccc(O)c(O)c3oc-2c1O [Trioctylamine Pyrogallol Red Salt, pyrogallol red]
[1]; Trioctylamine
  Ratio of Butanol Absorbance to Water Absorbance: 3.17
  Absorbance of Dye Salt in Butanol: 0.155
  Absorbance of Dye Salt in Water: 0.049
Lambda Light Chain [2]; listed as Trioctylamine Salt
  Reaction Absorbance at 600 nm − Absorbance at 900 nm (net protein response, protein minus non-protein sample): −0.042
Tamm-Horsfall [3]
  600 nm Absorbance Level, salt with Protein: 0.454 and 0.45
  900 nm Absorbance Background Level, salt with Protein: 0.085 and 0.084
  600 nm Absorbance Level, salt in Phosphate Buffered Saline (No Protein): 0.485 and 0.486
  900 nm Absorbance Background Level, salt in Phosphate Buffered Saline (No Protein): 0.081 and 0.082
Tamm-Horsfall [3]; listed as Trioctylamine Salt
  Reaction Absorbance at 600 nm − Absorbance at 900 nm (net protein response, protein minus non-protein sample): −0.034
Human IgG [4]; listed as Trioctylamine Salt
  Reaction Absorbance at 600 nm − Absorbance at 900 nm (net protein response, protein minus non-protein sample): −0.011
[5]
  600 nm Absorbance Level, salt with Protein: 0.454 and 0.464
  900 nm Absorbance Background Level, salt with Protein: 0.087 and 0.088
  600 nm Absorbance Level, salt in Phosphate Buffered Saline (No Protein): 0.476 and 0.483
  900 nm Absorbance Background Level, salt in Phosphate Buffered Saline (No Protein): 0.082 and 0.081
[5]; listed as Trioctylamine Salt
  Reaction Absorbance at 600 nm − Absorbance at 900 nm (net protein response, protein minus non-protein sample): −0.021
